Calls of active or inactive are those of the source. No rule for the calls is given here.
target: glutathione S-transferase (GST-GSH binding); test: GST–glutathione interaction disruption – biochemical, multiplex beads, flow cytometry, HPSMTB buffer, profiling panel (AID 1324); conditions: multiplex bead flow cytometry, MCF;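 also: glutathione beads loaded with GST-green fluorescent protein and no fluorescent Bim peptide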

| Compound | EC50 |
| --- | --- |
| COc1cc(/C=N/Nc2nn3cnnc3c3ccccc23)ccc1O | 2360 nM |
| COc1ccc(-n2c(=O)c3ccccc3c3ccccc3c2=O)c(OC)c1 | inactive |
| Cc1ccc(O)c(NC2=C(Cl)C(=O)N(Cc3ccccc3)C2=O)c1 | inactive |
| Cc1ccc(Nc2nc(-c3c(C)nc4ncccn34)cs2)cc1 | inactive |
| COCCCn1c(N)c(C(=O)Nc2sc3c(c2C(=O)OC)CCCC3)c2nc3ccccc3nc21 | 2550 nM |
| CN1CCN(c2ccc(N)cc2)CC1 | inactive |
| COC(=O)c1sc2nc[nH]c(=O)c2c1C | inactive |
| COc1cc2[nH]c(=S)nc(NCC3CCCO3)c2cc1OC (stereo unspecified) | inactive |

same assay, conditions: multiplex bead flow cytometry, MCF, stronger effect = higher value, concentration not given here

| Compound | percent span inhibition |
| --- | --- |
| Cc1ccc(Nc2nc(-c3ccccc3)c(CC(=O)O)s2)cc1 | inactive |
| Cc1ccnc(NS(=O)(=O)c2ccc(NC(=O)c3c(-c4ccccc4Cl)noc3C)cc2)n1 | inactive |
| COc1ccc(CC(=O)Nc2ccc3nc(C)sc3c2)cc1OC | inactive |
| CCOc1cc(C2Nc3cccc4cccc(c34)N2)ccc1O | inactive |
| CCOc1ncccc1C(=O)OC(C)C(=O)Nc1ccc(CC)cc1 (stereo unspecified) | inactive |
| Cc1cc(C(=O)NCCCN(C)C)c2ccccc2n1 | inactive |
| Cn1c(N)c(C(=O)COC(=O)c2cc(-c3ccco3)nc3ccccc23)c(=O)n(C)c1=O | inactive |
| COc1ccc(C2CC(=O)C3=C(C2)Nc2ccccc2NC3c2coc3ccccc3c2=O)cc1OC (stereo unspecified) | inactive |
| COc1cccc(C(=O)/C=C/Nc2ccc(S(=O)(=O)Nc3onc(C)c3C)cc2)c1 | inactive |
| Cc1nc2ncccn2c1-c1csc(Nc2ccccc2)n1 | inactive |
| C=CCn1c(SCC(=O)Nc2ccc3c(c2)OCO3)nnc1-c1cc(Br)ccc1O | inactive |
| CN(C)CCNC(=O)C(=O)C1C(=O)Nc2ccccc21 (stereo unspecified) | inactive |
| Cc1ccc(-c2cc(-c3ccc4c(c3)OCO4)c(C#N)c(N)n2)o1 | inactive |
| c1coc(C2=Nc3cccc4cccc(c34)N2)c1 | inactive |
| COc1cc(NC(=S)NC(=O)c2cc(C)cc(C)c2)ccc1NC(=O)c1cccs1 | inactive |
| COc1ccccc1-n1c(-c2ccc(Cl)cc2)c[nH]c1=S | inactive |
| CC1(C)Cc2c(ccc3ccccc23)/C(=C/C(=O)N2CCCCC2)N1 | inactive |
| COc1cc2nc(=S)n(CCCN3CCOCC3)c(N)c2cc1OC | inactive |
| CN(C)C(Cc1ccccc1)C(=O)c1cccs1 (stereo unspecified) | inactive |
| CC1Cc2ccccc2N1C(=O)CSc1nnnn1-c1ccc2c(c1)OCCO2 (stereo unspecified) | inactive |
| Cc1ccc(-c2n[nH]c(=S)n2-c2ccccc2)cc1 | inactive |
| CC(=O)Nc1ccc(-n2cc(-c3ccccc3)[nH]c2=S)cc1 | inactive |
| O=C(COc1ccccc1)Nc1ccc2c(c1)Cc1cc(NC(=O)COc3ccccc3)ccc1-2 | inactive |
| Clc1nc2ccccc2cc1/C=N/Nc1nc2ccccc2[nH]1 | inactive |

| Compound | percent span inhibition |
| --- | --- |
| S=C(Nc1ccccc1)N1CCn2cccc2C1c1cccnc1 (stereo unspecified) | inactive |
| CCN1CCN(c2cc(C)c3cc(NC(=S)N4CCN(c5ccccc5)CC4)ccc3n2)CC1 | inactive |
| N/C(=N\OC(=O)CCC1CCCC1)c1ccncc1 | inactive |
| COCCNC(=O)CN1CCC(NC(=O)Nc2ccccc2)CC1 | inactive |
| CCOc1c(Cl)cc(CNc2ccc(N3CCCC3)cc2)cc1OC | inactive |
| COc1ccccc1-n1c(SCC(=O)N2CCc3ccccc32)nc2c(c1=O)SCC2 | inactive |
| CC(C)(C)NC(=O)COc1ccc(CNc2ccc3[nH]c(=O)[nH]c3c2)cc1 | inactive |
| O=C(CCl)Nc1cccc2ncccc12 | inactive |
| O=[N+]([O-])c1ccc2[nH]nc(-c3ccccc3)c2c1 | inactive |
| COc1ccc(/C=C(/C(=O)c2cccs2)N2C=CC=CC2=C(C#N)C#N)cc1 | inactive |
| Cc1ccc(-c2cc(-c3ccc(C)o3)nc(N)c2C#N)cc1 | inactive |
| COc1cc(C2Nc3cccc4cccc(c34)N2)cc(OC)c1O | inactive |
| CCCCNC(=O)c1ccc2nc(-c3ccco3)c(-c3ccco3)nc2c1 | inactive |
| Cn1c(OCc2cccnc2)nc2c1c(=O)n(Cc1ccccc1)c(=O)n2C | inactive |
| O=[N+]([O-])c1cccc(S(=O)(=O)NCC2CCCO2)c1 (stereo unspecified) | inactive |
| COC(=O)c1c(NC(=O)COc2ncnc3ccccc23)sc(C)c1C | inactive |
| Cc1c(N=C2C=CC(=O)c3ccccc32)c(=O)n(-c2ccccc2)n1C | inactive |
| CSc1n[nH]c2nc3c(c(=O)n12)C1(CCCC1)Cc1ccccc1-3 | inactive |
| COc1cc(/C=C2/NC(=O)N(Cc3ccccc3F)C2=O)ccc1O | inactive |
| O=C(Nc1cccc(Cl)c1)Nc1ccc(Cl)cn1 | inactive |
| Clc1nssc1=Nc1ccc(Br)cc1 | inactive |
| COC(=O)c1ccc(/C=N/NC(=O)CC(=O)NCc2cccnc2)cc1 | inactive |
| Cc1ccc(/C=C2/NC(=O)N(Cc3ccccc3)C2=O)o1 | inactive |
| O=C(Cn1cncc1-c1ccc([N+](=O)[O-])cc1)Nc1ccccc1F | inactive |

| Compound | percent span inhibition |
| --- | --- |
| O=C(c1cccc(Br)c1)N1CCN(c2cnn(-c3ccccc3)c(=O)c2Cl)CC1 | inactive |
| COc1ccc(NC(=O)COc2ncnc3ccccc23)cc1S(=O)(=O)N1CCOCC1 | inactive |
| COc1ccc(OC)c(Nc2ccc(C(=O)O)cc2[N+](=O)[O-])c1 | inactive |
| Nc1c(C(=O)NCc2ccco2)sc2nc3c(cc12)C(=O)CCC3 | inactive |
| CN(C)C(=O)N1CCC(C(=O)NC2CCCCCCC2)CC1 | inactive |
| Cc1cc(NC(=O)CSc2nnc(-c3cccnc3)n2Cc2ccccc2)no1 | inactive |
| O=C(OCc1cnc(Cl)s1)c1cccc(Cl)c1Cl | inactive |
| CCOC(=O)c1[nH]cnc1C(=O)NC(C)C | inactive |
| OC(COc1ccc2ccccc2c1)CN1CCCC1 (stereo unspecified) | inactive |
| CC1CC2=C(NC(=S)NC2c2cccc(F)c2)/C(=C/c2cccc(F)c2)C1 (stereo unspecified) | inactive |
| Cc1cc(NC(=O)CCCC(=O)N(CC(=O)NC2CCCCC2)c2ccccc2)no1 | inactive |
| O=C(c1cnccn1)N1CCN(c2ccccc2F)CC1 | inactive |
| Clc1ccc2c(N/N=C/c3ccccc3Br)ccnc2c1 | inactive |
| COc1ccc(NC(=O)c2ccc3c(c2)NC(=O)CS3)cc1S(=O)(=O)Nc1ccc(Br)cc1 | inactive |
| Nc1c(C(=O)NC2CC2)sc2nc3c(c(-c4ccco4)c12)CC/C3=C/c1ccco1 | inactive |
| COC(=O)c1cc(OC)c(OC)cc1NC(=O)Nc1cccc(C(C)=O)c1 | inactive |
| CCCCc1ccc(NC(=S)NCc2ccc(OC)cc2)cc1 | inactive |
| O=C(Cc1ccccc1)N/N=C/c1cccn1-c1ccc([N+](=O)[O-])cc1 | inactive |
| COC(=O)c1[nH]c2ccccc2c1NC(=O)c1ccccc1[N+](=O)[O-] | inactive |
| COc1cc(N=c2ssnc2Cl)cc(OC)c1 | inactive |
| C=CS(=O)(=O)c1sc(Cl)c(N2CCOCC2)c1[N+](=O)[O-] | inactive |
| O=C1/C(=C\c2ccco2)NC(=S)N1c1ccccc1 | inactive |
| COCCN=c1scc(-c2ccco2)n1/N=C/c1ccc(O)c(O)c1O | inactive |
| COc1ccccc1-n1c(-c2cc(-c3ccc(F)cc3)n[nH]2)n[nH]c1=S | inactive |

| Compound | percent span inhibition |
| --- | --- |
| CNCc1ccccc1Sc1cc(O)ccc1O | inactive |
| COc1ccc(C2=Nn3c(nnc3-c3ccccn3)SC2)cc1OC | inactive |
| CCOc1ccccc1NC(=O)CSc1nnc2ccc(-c3cccnc3)nn12 | inactive |
| Cc1ccc(-c2cc(-c3ccc(F)cc3)c(C#N)c(N)n2)o1 | inactive |
| CCN(CC)c1ccc(NC(=O)c2ccccc2F)cc1S(=O)(=O)Nc1ccccc1OC | inactive |
| Cc1cccc(C(=O)N=c2c(C#N)cc3c(=O)n4cccc(C)c4nc3n2Cc2ccco2)c1 | inactive |
| c1ccc(-c2nnc(OCCN3CCOCC3)c3ccccc23)cc1 | inactive |
| COc1ccc2nc(C)cc(SCC(=O)N/N=C/c3ccc(O)cc3O)c2c1 | inactive |
| CNc1ccc(Br)cc(C(=O)/C=C/c2cc(OC)ccc2OC)c1=O | inactive |
| Cc1cc[n+]2cc(-c3cccc([N+](=O)[O-])c3)c(-c3cccc([N+](=O)[O-])c3)cc2c1 | inactive |
| Cc1cc(C)c[n+](-c2nc3ccccc3nc2C(=C=[N-])C#N)c1 | inactive |
| O=C(NCCCN1CCCC1=O)NC1CCCCC1 | inactive |
| O=C(/C=C/c1ccc(-c2ccccc2)o1)c1ccccc1 | inactive |
| CCOC(=O)C1=C(Cc2ccc(C)cc2)C(=O)c2ccccc2C1=O | inactive |
| Cc1cccc(NC(=S)N2CCn3cccc3C2c2cccnc2)c1 (stereo unspecified) | inactive |
| COc1ccc2c3c(cccc13)N(C)N=C2C | inactive |
| O=C(COC(=O)c1ccccn1)NC1CCCCC1 | inactive |
| Cn1c(CCNC(=O)C2CCCCC2)nc2cc(NC(=O)c3cccs3)ccc21 | inactive |
| CC1Cc2ccccc2N1C(=O)c1ccc(N2CCCC2)c([N+](=O)[O-])c1 (stereo unspecified) | inactive |
| COc1ccc(N=C2NC(=O)/C(=C\C=C\c3ccco3)S2)cc1 | inactive |
| O=C(COC(=O)CCCN=C1NS(=O)(=O)c2ccccc21)NC(=O)NC1CCCC1 | inactive |
